ChEMBL document CHEMBL4219148, “Discovery of a highly potent orally bioavailable imidazo-[1, 2-a]pyrazine Aurora inhibitor” (Bioorg Med Chem Lett, 2018)

What was measured:
Aurora kinase A = molecular target: T1, Aurora kinase A (Homo sapiens, UniProt O14965); experiment: Inhibition of Aurora A (unknown origin) using Tamra-PKAtide as substrate by fluorescence polarization assay
T1 sequence (O14965 whole entry): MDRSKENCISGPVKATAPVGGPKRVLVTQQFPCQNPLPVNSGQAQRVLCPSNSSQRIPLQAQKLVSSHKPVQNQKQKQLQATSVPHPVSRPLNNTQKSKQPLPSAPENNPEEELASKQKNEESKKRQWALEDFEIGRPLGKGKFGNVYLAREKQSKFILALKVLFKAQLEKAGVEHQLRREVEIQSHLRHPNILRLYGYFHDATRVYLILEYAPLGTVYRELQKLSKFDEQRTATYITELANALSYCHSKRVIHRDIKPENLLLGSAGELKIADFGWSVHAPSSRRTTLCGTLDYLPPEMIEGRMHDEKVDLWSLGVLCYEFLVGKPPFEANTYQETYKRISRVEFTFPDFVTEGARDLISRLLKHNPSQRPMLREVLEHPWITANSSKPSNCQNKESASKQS

Aurora kinase B [1] = molecular target: T2, Aurora kinase B (Homo sapiens, UniProt Q96GD4); experiment: Inhibition of Aurora B in human HCT116 cells assessed as reduction in phosphorylation of Histone H3 at Ser10 residue incubated for 1 hr by Hoechst 33342 dye-based immunofluorescence microscopic method; assay type: cell-based
T2 sequence (Q96GD4 whole entry): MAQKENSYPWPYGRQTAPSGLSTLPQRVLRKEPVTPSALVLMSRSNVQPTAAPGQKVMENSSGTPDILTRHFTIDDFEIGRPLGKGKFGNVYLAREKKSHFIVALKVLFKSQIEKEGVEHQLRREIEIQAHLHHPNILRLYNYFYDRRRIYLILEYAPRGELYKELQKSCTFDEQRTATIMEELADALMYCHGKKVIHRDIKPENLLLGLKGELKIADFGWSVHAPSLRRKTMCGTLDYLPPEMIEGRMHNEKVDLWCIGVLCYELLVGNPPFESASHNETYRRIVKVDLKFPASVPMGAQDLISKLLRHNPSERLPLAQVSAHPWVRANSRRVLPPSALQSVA

Aurora kinase B [2] = molecular target: T2, Aurora kinase B; experiment: Binding affinity to Aurora B (unknown origin) after 45 mins by fluorescence-based thermal stability shift assay
Ephrin type-B receptor 4 = molecular target: T3, Ephrin type-B receptor 4 (Homo sapiens, UniProt P54760); experiment: Inhibition of EPHB4 (unknown origin)
T3 sequence (P54760 whole entry): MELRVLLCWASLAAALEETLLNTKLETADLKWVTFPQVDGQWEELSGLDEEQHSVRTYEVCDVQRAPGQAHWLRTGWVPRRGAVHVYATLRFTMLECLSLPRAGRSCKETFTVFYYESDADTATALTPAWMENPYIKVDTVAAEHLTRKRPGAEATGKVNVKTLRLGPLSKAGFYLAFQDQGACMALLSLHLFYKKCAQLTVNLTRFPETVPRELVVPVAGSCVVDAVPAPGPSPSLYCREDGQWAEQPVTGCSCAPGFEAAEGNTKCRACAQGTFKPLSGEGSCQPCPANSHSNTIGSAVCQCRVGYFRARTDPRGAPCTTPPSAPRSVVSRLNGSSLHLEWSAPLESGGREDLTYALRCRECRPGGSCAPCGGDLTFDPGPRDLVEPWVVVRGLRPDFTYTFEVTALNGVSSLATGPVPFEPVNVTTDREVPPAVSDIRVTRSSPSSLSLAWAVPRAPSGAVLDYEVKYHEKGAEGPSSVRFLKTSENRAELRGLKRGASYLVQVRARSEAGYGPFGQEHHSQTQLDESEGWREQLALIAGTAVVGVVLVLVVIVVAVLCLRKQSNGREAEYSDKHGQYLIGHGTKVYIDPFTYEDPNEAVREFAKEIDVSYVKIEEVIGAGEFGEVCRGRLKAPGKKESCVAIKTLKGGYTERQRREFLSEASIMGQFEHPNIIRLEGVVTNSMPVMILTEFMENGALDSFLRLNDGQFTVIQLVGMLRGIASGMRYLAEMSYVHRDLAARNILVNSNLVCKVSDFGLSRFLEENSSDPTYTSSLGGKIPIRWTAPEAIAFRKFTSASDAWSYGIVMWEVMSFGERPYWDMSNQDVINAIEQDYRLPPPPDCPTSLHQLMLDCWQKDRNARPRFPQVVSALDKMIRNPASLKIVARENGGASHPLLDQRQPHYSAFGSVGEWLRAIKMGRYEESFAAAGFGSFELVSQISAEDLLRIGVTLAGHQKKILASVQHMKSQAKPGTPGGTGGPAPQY

[3] = molecular target: Hepatocyte growth factor receptor (Homo sapiens, UniProt P08581); experiment: Inhibition of MET (unknown origin)
[4] = molecular target: T4, Serine/threonine-protein kinase 3 (Homo sapiens, UniProt Q13188); experiment: Inhibition of MST2 (unknown origin)
T4 sequence (Q13188 whole entry): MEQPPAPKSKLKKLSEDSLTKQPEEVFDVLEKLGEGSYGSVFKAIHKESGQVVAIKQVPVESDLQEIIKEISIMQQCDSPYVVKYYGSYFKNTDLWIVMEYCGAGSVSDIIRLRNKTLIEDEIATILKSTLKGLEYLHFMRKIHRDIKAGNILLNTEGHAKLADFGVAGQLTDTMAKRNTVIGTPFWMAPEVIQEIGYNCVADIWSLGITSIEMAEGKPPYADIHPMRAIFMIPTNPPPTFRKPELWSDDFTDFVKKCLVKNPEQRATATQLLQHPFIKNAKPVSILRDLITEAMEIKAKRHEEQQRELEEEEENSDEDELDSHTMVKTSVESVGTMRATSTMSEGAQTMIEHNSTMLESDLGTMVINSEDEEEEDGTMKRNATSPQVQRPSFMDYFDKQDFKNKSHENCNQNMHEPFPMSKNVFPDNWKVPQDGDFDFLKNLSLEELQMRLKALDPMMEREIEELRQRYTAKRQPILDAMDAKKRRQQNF

[5] = molecular target: RAC-alpha serine/threonine-protein kinase (Homo sapiens, UniProt P31749); experiment: Inhibition of AKT1 (unknown origin)
Sequence of RAC-alpha serine/threonine-protein kinase (P31749 whole entry): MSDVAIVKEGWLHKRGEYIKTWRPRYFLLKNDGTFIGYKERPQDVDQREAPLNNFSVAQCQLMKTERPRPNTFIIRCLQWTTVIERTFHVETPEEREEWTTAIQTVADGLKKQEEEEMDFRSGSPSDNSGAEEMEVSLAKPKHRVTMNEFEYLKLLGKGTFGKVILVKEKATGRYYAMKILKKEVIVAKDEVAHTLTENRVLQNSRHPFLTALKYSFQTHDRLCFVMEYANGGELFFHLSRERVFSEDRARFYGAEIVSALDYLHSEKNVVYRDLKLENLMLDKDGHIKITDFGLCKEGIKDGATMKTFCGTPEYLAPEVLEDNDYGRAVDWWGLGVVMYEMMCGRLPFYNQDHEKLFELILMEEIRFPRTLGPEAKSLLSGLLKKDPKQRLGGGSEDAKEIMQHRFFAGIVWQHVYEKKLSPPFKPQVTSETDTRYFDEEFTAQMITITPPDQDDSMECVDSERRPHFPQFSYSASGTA

[6] = molecular target: T5, Calcium/calmodulin-dependent protein kinase type IV (Homo sapiens, UniProt Q16566); experiment: Inhibition of CAMK4 (unknown origin)
T5 sequence (Q16566 whole entry): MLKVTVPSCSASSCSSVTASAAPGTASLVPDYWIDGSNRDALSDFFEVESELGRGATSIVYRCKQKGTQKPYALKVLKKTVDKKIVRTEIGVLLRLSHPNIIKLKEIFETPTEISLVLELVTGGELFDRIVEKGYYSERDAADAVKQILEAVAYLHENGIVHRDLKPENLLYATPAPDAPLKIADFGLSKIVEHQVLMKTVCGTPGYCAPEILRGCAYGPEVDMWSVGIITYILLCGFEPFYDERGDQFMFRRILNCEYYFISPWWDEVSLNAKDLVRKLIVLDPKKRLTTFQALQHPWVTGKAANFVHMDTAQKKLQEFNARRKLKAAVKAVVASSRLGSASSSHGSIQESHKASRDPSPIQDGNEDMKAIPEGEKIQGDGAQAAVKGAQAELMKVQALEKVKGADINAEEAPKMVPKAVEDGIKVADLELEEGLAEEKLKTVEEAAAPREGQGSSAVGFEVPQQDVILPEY

[7] = molecular target: Casein kinase I isoform delta (Homo sapiens, UniProt P48730); experiment: Inhibition of CSNK1D (unknown origin)
Sequence of Casein kinase I isoform delta (P48730 whole entry, canonical isoform): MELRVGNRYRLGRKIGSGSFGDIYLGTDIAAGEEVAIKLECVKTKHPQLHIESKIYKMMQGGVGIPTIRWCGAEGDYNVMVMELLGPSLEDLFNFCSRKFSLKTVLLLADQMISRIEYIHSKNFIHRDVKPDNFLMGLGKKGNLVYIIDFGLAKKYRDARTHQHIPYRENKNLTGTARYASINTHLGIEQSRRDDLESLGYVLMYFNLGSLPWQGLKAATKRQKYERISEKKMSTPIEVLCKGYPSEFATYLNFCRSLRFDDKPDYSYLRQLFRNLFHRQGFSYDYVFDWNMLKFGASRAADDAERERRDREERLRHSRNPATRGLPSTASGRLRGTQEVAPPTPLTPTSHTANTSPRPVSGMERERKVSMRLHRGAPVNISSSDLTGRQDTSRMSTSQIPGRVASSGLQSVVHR

[8] = molecular target: Epidermal growth factor receptor (Homo sapiens, UniProt P00533); experiment: Inhibition of EGFR (unknown origin)
Sequence of Epidermal growth factor receptor (P00533 whole entry): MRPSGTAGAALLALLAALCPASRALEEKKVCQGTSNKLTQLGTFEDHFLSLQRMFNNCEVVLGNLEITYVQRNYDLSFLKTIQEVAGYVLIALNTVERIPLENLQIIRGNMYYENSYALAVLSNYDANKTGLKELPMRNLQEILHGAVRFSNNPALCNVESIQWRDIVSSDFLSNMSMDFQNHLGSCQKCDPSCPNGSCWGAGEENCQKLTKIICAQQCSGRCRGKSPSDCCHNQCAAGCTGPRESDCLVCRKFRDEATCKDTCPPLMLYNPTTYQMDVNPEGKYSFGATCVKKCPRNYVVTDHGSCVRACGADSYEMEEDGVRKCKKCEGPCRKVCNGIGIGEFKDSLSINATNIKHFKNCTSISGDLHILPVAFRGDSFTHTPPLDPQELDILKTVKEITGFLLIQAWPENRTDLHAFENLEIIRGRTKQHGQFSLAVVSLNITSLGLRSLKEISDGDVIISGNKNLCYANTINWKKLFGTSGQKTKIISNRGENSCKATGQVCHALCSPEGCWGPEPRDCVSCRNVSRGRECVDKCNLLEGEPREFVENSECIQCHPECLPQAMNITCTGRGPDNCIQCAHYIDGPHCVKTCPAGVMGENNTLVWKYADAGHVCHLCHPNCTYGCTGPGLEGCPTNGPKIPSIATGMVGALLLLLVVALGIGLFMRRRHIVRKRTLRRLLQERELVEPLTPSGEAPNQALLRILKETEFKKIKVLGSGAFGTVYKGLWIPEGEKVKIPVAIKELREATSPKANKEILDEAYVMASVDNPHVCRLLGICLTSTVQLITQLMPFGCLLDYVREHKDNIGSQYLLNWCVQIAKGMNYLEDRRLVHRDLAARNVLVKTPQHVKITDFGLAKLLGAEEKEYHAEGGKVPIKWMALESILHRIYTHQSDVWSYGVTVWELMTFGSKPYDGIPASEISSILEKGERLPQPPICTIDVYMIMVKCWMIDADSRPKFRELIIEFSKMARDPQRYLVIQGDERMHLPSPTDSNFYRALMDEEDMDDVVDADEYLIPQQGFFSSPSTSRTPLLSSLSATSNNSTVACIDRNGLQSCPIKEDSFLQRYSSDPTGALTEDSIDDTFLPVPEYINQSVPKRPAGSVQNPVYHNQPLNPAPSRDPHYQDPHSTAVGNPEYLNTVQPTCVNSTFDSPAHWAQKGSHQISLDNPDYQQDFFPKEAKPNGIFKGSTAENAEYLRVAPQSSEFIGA

[9] = molecular target: Tyrosine-protein kinase JAK2 (Homo sapiens, UniProt O60674); experiment: Inhibition of JAK2 (unknown origin)
Sequence of Tyrosine-protein kinase JAK2 (O60674 whole entry): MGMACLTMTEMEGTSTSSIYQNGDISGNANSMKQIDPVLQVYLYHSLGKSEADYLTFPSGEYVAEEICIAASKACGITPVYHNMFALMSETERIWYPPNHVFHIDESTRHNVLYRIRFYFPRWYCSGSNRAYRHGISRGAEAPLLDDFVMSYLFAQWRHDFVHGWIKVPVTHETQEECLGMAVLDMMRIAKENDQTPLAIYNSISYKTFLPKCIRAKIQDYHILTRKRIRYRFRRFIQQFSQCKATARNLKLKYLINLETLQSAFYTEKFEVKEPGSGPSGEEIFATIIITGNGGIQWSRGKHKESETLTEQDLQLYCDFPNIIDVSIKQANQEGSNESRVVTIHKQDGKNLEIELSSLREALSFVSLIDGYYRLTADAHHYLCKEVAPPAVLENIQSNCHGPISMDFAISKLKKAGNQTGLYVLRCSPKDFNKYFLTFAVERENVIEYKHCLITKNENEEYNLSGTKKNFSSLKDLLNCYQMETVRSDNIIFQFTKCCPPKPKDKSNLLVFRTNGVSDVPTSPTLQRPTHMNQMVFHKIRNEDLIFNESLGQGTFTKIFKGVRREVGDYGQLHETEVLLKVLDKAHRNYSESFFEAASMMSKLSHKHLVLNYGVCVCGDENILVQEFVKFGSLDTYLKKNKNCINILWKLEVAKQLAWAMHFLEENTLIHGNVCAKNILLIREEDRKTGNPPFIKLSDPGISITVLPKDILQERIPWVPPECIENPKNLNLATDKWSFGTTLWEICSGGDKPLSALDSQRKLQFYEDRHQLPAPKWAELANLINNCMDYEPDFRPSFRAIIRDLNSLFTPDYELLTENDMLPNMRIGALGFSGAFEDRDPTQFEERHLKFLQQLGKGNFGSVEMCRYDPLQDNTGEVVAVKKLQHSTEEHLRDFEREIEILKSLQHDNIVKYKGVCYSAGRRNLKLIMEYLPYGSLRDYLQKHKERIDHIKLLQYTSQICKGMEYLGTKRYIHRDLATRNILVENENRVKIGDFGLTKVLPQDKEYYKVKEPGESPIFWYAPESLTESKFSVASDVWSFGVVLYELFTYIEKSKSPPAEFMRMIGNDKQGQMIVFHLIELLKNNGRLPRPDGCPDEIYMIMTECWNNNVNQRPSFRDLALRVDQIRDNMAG

[10] = molecular target: Rho-associated protein kinase 2 (Homo sapiens, UniProt O75116); experiment: Inhibition of ROCK2 (unknown origin)
Sequence of Rho-associated protein kinase 2 (O75116 whole entry): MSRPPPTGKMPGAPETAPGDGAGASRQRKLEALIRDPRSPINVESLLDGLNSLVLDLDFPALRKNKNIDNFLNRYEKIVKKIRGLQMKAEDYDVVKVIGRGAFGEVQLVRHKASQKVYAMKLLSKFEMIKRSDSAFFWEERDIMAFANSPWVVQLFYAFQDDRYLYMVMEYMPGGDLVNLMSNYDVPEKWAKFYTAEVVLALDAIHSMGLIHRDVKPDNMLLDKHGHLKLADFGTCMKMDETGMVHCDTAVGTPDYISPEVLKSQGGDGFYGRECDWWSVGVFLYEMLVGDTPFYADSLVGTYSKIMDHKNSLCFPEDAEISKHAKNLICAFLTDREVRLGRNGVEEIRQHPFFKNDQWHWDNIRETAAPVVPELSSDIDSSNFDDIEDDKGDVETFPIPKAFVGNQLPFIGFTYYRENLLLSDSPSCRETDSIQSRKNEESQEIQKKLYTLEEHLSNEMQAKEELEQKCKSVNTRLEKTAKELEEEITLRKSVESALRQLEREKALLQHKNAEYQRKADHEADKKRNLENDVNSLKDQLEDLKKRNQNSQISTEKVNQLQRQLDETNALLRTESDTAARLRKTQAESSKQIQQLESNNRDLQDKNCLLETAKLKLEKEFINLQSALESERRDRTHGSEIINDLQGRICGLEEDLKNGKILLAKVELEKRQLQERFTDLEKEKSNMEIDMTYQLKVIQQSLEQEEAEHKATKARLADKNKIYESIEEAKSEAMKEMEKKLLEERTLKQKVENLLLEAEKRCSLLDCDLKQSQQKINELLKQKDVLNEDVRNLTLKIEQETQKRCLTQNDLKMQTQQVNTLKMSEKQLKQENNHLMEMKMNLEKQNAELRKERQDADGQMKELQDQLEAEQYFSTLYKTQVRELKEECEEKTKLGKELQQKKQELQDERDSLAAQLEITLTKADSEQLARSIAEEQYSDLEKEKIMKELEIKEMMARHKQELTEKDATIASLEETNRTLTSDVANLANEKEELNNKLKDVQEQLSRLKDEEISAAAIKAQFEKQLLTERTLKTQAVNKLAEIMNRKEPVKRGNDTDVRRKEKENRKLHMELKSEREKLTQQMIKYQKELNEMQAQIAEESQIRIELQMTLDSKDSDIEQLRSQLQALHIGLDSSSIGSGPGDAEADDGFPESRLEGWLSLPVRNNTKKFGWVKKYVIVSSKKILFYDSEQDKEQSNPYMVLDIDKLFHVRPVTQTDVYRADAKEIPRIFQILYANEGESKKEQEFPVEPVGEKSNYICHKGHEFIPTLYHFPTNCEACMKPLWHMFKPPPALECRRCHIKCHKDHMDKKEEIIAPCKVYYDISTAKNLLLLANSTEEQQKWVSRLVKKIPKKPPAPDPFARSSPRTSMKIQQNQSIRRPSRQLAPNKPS

Cytochrome P450 2D6 = Cytochrome P450 2D6 (Homo sapiens, UniProt P10635); experiment: Inhibition of CYP2D6 in human liver microsomes; assay type: ADME
[11] = Half life in mouse at 3 mg/kg, iv; assay type: ADME, organism-based; conditions: in vivo
[12] = Half life in monkey at 1 mg/kg, iv; assay type: ADME, organism-based, Macaca mulatta; conditions: rhesus monkey, in vivo

Compound | IC50 (Aurora kinase A) [nM] | EC50 (Aurora kinase B [1]) [nM] | Kd (Aurora kinase B [2]) [nM] | IC50 (Ephrin type-B receptor 4) [nM] | IC50 [3] [nM] | IC50 [4] [nM] | IC50 [5] [nM] | IC50 [6] [nM] | IC50 [7] [nM] | IC50 [8] [nM] | IC50 [9] [nM] | IC50 [10] [nM] | IC50 (Cytochrome P450 2D6) [nM] | half-life [11] [h] | half-life [12] [h]
Cc1cn2c(-c3cn[nH]c3)cnc2c(Nc2cc(Cc3ccccn3)ns2)n1 | < 4 | 117 | 0.1 | 390 | > 500 | > 500 | > 500 | > 500 | > 500 | > 500 | > 500 | > 500 | > 20000 | 0.2 | 0.5
CCN(CCO)Cc1cc(Nc2nc(C)cn3c(-c4cn[nH]c4)cnc23)sn1 | < 4 | 24 |  | 100 | > 500 | > 500 | > 500 | > 500 | > 500 | > 500 | > 500 | > 500 |  |  | 
Cc1cn2c(-c3cn[nH]c3)cnc2c(Nc2cc(C(NC(C)(C)C)c3ccccn3)ns2)n1 (single isomer, unassigned; (+)) | ≤ 4 | < 16 | 0.01 | 38 | > 1000 | > 1000 | > 1000 | > 1000 | > 1000 | > 1000 | > 1000 | > 1000 | 11500 | 1.8 | 2.2
